Experimental data reported in patent US20250100947A1, “NITROUS OXIDE INHIBITOR” (His Majesty the King in Right of New Zealand Acting Through …, priority 2021, published 2025).

Experiments:
[1] = tested on: N2O emissions from urine-treated pasture soil; experiment: Field trial, static chamber N2O emissions from simulated cattle urine patches; conditions: for Net emitted: control subtracted
Source text: A trial site was fenced off and stock excluded for about 14 weeks, until the commencement of the field trials, to avoid interference from fresh dung and urine inputs and reduce spatial heterogeneity/variability from the previous uneven deposition of dung and urine.
Approximately two weeks before the commencement of the trial, pasture was mown to 50 mm height, 4 soil samples (to 100 mm depth) were collected for physicochemical characterisation and Field plots were established in a randomised complete block design with 5 treatments as shown in Table 1. Plot size was 2.5×2.5 m for all treatments with an additional buffer area of at least 0.5 m between adjacent plots.
Natural urine deposition was simulated with 2 L cattle urine (containing 8.35 g N L^−1) in large static chambers allowing for urine edge-effect. All solutions containing a N2O inhibitor were applied at the same rate (30 mL/Chambers; 600 L/ha). For all urine treatments, 2 L urine was poured to the central point of the chamber base area at a height of approximately 1.2 m and allowed to spread naturally. To mimic the “Spikey®” urine patch treatment, a spot-sprayer system (supplied by Pastoral Robotics Limited) was used for treating the urine patch in the large chambers. All the inhibitor compositions were applied to the relevant treatments within 4 h after urine application.
A static chamber technique was used to measure N2O emissions, and the methodology was based on that used in a previous published study on N2O emissions (Luo et al 2015). One week before the trial began, static chamber bases (80 cm diameter) were inserted into the soil. Herbage within the chamber base and the ring areas was cut to 50 mm above ground level before the application of the treatments.
Pre-treatment gas flux was taken from each chamber a day before the application of treatments to determine the spatial variability of background of N2O flux between the plots and to assist with interpretation of patterns of N2O flux from individual sampling plots post treatment application as a covariate for statistical analysis of post-treatment emissions.
Post treatment gas measurements were carried out at 2, 24 and 72 h after application of the urine and inhibitor compositions, twice a week for the first 8 weeks and thereafter weekly. The measurements were continued until the N2O flux values for treatment plots reached the background levels measured in the control plots. During weekly phases of N2O flux measurement, additional sampling occurred as soon as practical following rainfall events of greater than 10 mm of rain in the previous 24 h. On each sampling day, N2O measurements were carried out between 1000 and 1200 h. Gas samples from chamber headspace were taken during a cover period of 100 minutes at times t0, […] (or similar). Two background atmosphere samples were also taken on each sampling day at each site. […] The measurements of N2O emission from the treatment plots continued until the first week of September. During this period, 3 pasture harvests were taken, and herbage samples analysed for N content.
Nitrous oxide concentration of gas samples were analysed by gas chromatograph using a Shimadzu GC-17a gas chromatograph equipped with a 63Ni-electroncapture detector (oven, valve and detector temperatures were operated at 65, 100 and 280° C., respectively, using oxygen-free N as a carrier gas and connected to an automatic sampler capable of handling up to 120 samples, and a SRI 8610 automated gas chromatograph. Chamber temperatures were recorded at the beginning and end of the cover period and the average of the two readings were considered the chamber temperature for calculating gas flux. The increase in N2O concentration within the chamber headspace, for the gas samples collected at t0, t50 and t100 was generally linear (R2>0.90). Therefore, the hourly N2O fluxes will be calculated using linear regression and the ideal gas law according to Equation 1: […]

[2] = tested on: soil potential denitrification (DEA) enzyme activity; experiment: Soil denitrification enzyme activity (DEA) short-term incubation; format: biochemical
Description: Short-term incubation studies were conducted to determine the effect of the compound of the invention on soil potential denitrification (DEA) enzyme activity. Details of each assay are described in Zhong et al. (2015, 2016).
The denitrification assay involved testing the effect of five ALBSO treatments: 0 (water only), carrier (formic acid only), low (0.011 μg ALBSO g^−1 dry soil), high (0.046 μg ALBSO g^−1 dry soil) and very high (0.91 μg ALBSO g^−1 dry soil) at a common N rate delivered as KNO3.
The ALBSO treatments were formulated with an absolute minimum amount of formic acid needed to just dissolve the required amount of ALBSO into solution. Identical amounts of formic acid were used to formulate the carrier, low, high and very high ALBSO treatments, with the carrier containing only formic acid and water. The pH of carrier, low, high and very high ALBSO treatment solutions was identical and mildly acidic.
After a 4-hour incubation period, N2O concentrations were lower (P<0.008) for incubation vessels that had been treated with ALBSO. […] Typically, results for this kind of incubation become unreliable after 6 hours, however, the 8 hour sampling in case the high level of N addition allowed for a longer period of microbial activity.
A further incubation was performed to test the effect of the carrier as well as the high rate of ALBSO on denitrification enzyme activity.
The final incubation included a treatment where acetylene was not added. The use of acetylene gives further information on whether the ALBSO effect on denitrification is due to effects on enzymes linked to nirK and nirS (with acetylene) or nosZ (without acetylene) genes. […] Letters refer to ALBSO effects within acetylene treatments (LSD 5.3, n=3).

[3] = tested on: NO3^− leaching from grazed pasture soil; experiment: Field lysimeter study of nitrate leaching from cow urine; conditions: for % Reduction of leaching due to inhibitor: compared to the urine only treatment, P<0.05; for Total leaching: cow urine 600 kg N ha^−1, inhibitor applied within 1 hour, DCD at 10 kg ha^−1, urine alone 358
Description: A field lysimeter study was conducted to examine the effects of albendazole sulfoxide on NO3^− leaching resulting from cow urine applied to a grazed pasture (at a loading rate of about 600 kg N ha^−1). The field lysimeter experiment was a randomized complete block design with the following treatments: • Control (no urine and no inhibitor) • Urine alone (600 kg N ha^−1) • Urine plus DCD (DCD solution at 10 kg ha^−1) • Urine plus albendazole sulfoxide (supplied by AgResearch Palmerston North)
Urine was collected from dairy cows that had been grazing an established ryegrass-white clover pasture. The cow urine was bulked and held at 4° C. for a few days prior to application. The urine was applied in a single application at an N loading rate of 600 kg N ha^−1 and a hydraulic loading rate of 10 L m^−2 to simulate dairy cow urine deposition. […] The treatments were replicated 6 times.
These urine and inhibitor treatments were also simultaneously applied to associated 0.5 m^2 plots so that soil samples could be taken throughout the trial to monitor mineral N transformations and moisture levels.
Leachate volumes were measured from the lysimeters when drainage occurred over the drainage period (May-October). Subsamples of leachate were collected and frozen at −20° C. prior to analysis for nitrate N(NO3^−N) and ammonium N(NH4^+—N) using a Skalar SAN^++ segmented auto flow analyser (Skalar Analytical B.V., Breda, Netherlands).

[4] = Urine + high concentration ALBSO (900 μg), UA1
[5] = Urine + low concentration ALBSO (266 μg), UA2

In the case of `CCC[S+]([O-])c1ccc2[nH]c(NC(=O)OC)nc2c1` (stereo not drawn) [ALBSO, methyl [5-(propane-1-sulfinyl)-1H-benzoimidazol-2-yl]-carbamate], the Total emitted ([1]; Urine 2 L + high concentration ALBSO (900 μg in 0.054M formic acid), UA1, cumulative over 4 months) is reported as 3703 g N2O—N, the Total emitted ([1]; Urine 2 L + low concentration ALBSO (266 μg in 0.054M formic acid), UA2, cumulative over 4 months) is reported as 3147 g N2O—N and the “EF3 (% of applied N emitted)” value [1, 4] is reported as 0.84 % of applied N emitted. The Net emitted [1, 4] was 2807 g N2O—N, the “EF3 (% of applied N emitted)” value [1, 5] was 0.68 % of applied N emitted and the Net emitted [1, 5] was 2251 g N2O—N. For the same compound, the “Emissions from treated urine” value ([1]; urine treated with low concentration ALBSO composition) was 3147 g N2O—N ha^−1, the “ppm N2O after 4 h” value ([2]; High (0.046 μg ALBSO g^−1 dry soil), first incubation, n=3, H2O 138) was 102 ppm N2O and the “ppm N2O after 8 h” value ([2]; High (0.046 μg ALBSO g^−1 dry soil), first incubation, H2O 236) was 217 ppm N2O. For the same compound, the “N2O concentration after 4-hour incubation, acetylene not added” value ([2]; High ALBSO, final incubation, n=3, Acetylene No, H2O 97.3) was 84.7a ppm N2O, the “N2O concentration after 4-hour incubation, acetylene added” value ([2]; High ALBSO, final incubation, n=3, Acetylene Yes, H2O 96.9) was 90.9a ppm N2O and the “ppm N2O after 4 h” value ([2]; High rate of ALBSO, further incubation with carrier, n=4, H2O 97) was 90 ppm N2O. For the same compound, the “ppm N2O after 8 h” value ([2]; High rate of ALBSO, further incubation with carrier, n=4, H2O 137) was 131 ppm N2O, the “ppm N2O after 4 h” value ([2]; Low (0.011 μg ALBSO g^−1 dry soil), first incubation, n=3, H2O 138) was 96 ppm N2O and the “ppm N2O after 8 h” value ([2]; Low (0.011 μg ALBSO g^−1 dry soil), first incubation, H2O 236) was 233 ppm N2O. For the same compound, the “ppm N2O after 4 h” value ([2]; Very High (0.91 μg ALBSO g^−1 dry soil), first incubation, n=3, H2O 138) was 86 ppm N2O, the “ppm N2O after 8 h” value ([2]; Very High (0.91 μg ALBSO g^−1 dry soil), first incubation, H2O 236) was 232 ppm N2O and the “N2O concentrations after 4-hour incubation, treated vs untreated vessels” value ([2]; all ALBSO amounts, P<0.008, 28° C., anaerobic) was “lower”. The “Effect on reducing N2O over both acetylene treatments” value ([2]; final incubation, P=0.005) was “significant effect of ALBSO on reducing N2O”, the “% Reduction of leaching due to inhibitor” value [3] was 20% and the Total leaching [3] was 289 kg NO3^−—N ha^−1.

In the case of `N#CN=C(N)N` [DCD, dicyandiamide, reference compound], the Total emitted ([1]; Urine 2 L (16.70 g N) + DCD (0.25 g N), UDCD, cumulative over 4-month measurement period) is reported as 3142 g N2O—N, the “EF3 (% of applied N emitted)” value ([1]; Urine + DCD (0.25 g N), UDCD) is reported as 0.67 % of applied N emitted and the Net emitted ([1]; Urine + DCD (0.25 g N), UDCD) is reported as 2246 g N2O—N. The “Emissions from treated urine” value ([1]; urine treated with DCD) was 3142±300 g N2O—N ha^−1, the “% Reduction of leaching due to inhibitor” value [3] was 30% and the Total leaching [3] was 253 kg NO3^−—N ha^−1.
